Results reported in patent US9950983B2, “Tricyclic compounds and process for preparation thereof” (Council of Scientific and Industrial Research, priority 2014, dated 2018).

Experiments:
[1] = tested on: Ae. aegypti females mosquitoes; test: Mosquito repellence bioassay (protection period, time until the first bite); type: in vivo; conditions: time until first confirmed bite; for Protection period in hrs @dose 0.25 mg/cm^2: dose 0.25 mg/cm^2 on muslin cloth screen over human volunteer's hand; for Protection period in hrs @dose 0.50 mg/cm^2: dose 0.50 mg/cm^2 on muslin cloth screen over human volunteer's hand
Experimental: Protocol Adopted for the Mosquito Repellence Bioassay
Mosquito repellence activity was assessed on the basis of protection period (hr) offered by various analogues of Nootkatone against Mosquito bites. The protection period was measured on the basis of the concept “time until the first bite” pioneered by Granette (Comparison of mosquito repellency test under laboratory and field conditions. Granett, P. Proc Ann Meet NJ Mosq Assoc, 1938, vol. 25, 51,). Repellence tests were carried out against 3-5 days old, blood starved but sucrose fed (0.5M solution), Ae. aegypti females mosquitoes, drawn from well-established laboratory colony maintained at 27±1° C. Temperatureand 70±5% Relative humidity. The light intensity was regulated at 300-500 lux for testing against laboratory, colonized Ae. aegypti, a day biting mosquito. Human volunteer's hand covered with polythene disposable gloves was introduced in the cage containing about 200 hungry mosquitoes. Mosquitoes were allowed to bite on the back of the hand through muslin screen stuck over a small window (2 cm×2 cm) cutout in the polythene bag. Various analogues of Nootkatone were loaded on the muslin cloth screen instead of direct skin application so as to avoid the potential risk involved in the evaluation of natural products of unknown mammalian toxicity. All the test solutions were made in Analar grade Acetone The muslin cloth screen was first treated with the analogue taking two doses @0.25 mg/cm^2 and 0.5 mg/cm^2 and the solvent was evaporated before use. Control muslin screen was treated with solvent alone. After introduction of the hand covered with the polythene glove with the treated muslin screen into the mosquito cage, number of mosquito bites received in subsequent 5 minutes were counted. In the event of no bites in the initial 5 minutes exposure, the test hand was exposed repeatedly after every consecutive ½ hr for 5 minutes test till the time a confirmed bite was received. Number of hours before the receipt of a confirmed bite (Techniques for the evaluation of insect repellents. A critical review (Schreck, C. E, Ann Rev Entomol, 1977, vol 22, 101) represented the protection period offered by the test compound. In control rate of mosquito bite was 10-12 bites/min. Above test were repeated with both male and female human volunteers using different mosquito batches. All the tests were carried out at 27±1° C. temperature between 9.00-17.00 hrs.

[2] = tested on: Formosan subterranean termite (Coptotermes formosanus); conditions: Formosan subterranean termites; Zhu et al., J Chem Ecol 2001; cited from earlier work

| Structure (SMILES) | Protection period in hrs @dose 0.25 mg/cm^2 [1] [h] | Protection period in hrs @dose 0.50 mg/cm^2 [1] [h] | lowest effective concentration tested [2] [micrograms/g substrate] |
| --- | --- | --- | --- |
| C[C@H]1CC(=O)C=C2C[C@@H]3[C@H]([C@@H]21)C3(C)C [1e, (1aR,1bS,6aR)-1,1,2-Trimethyl-1a,1b,2,3,6,6a-hexahydrocyclo propa[a]inden-4(1H)-one] | 5.22 ± 0.0720 | 6.46 ± 0.1507 | – |
| C=C(C)[C@@H]1CCC2=CC(=O)C[C@@H](C)[C@]2(C)C1 [nootkatone] | – | – | 10 |
| CC1(C)[C@@H]2CC3=CC(=O)CCC3[C@@H]21 (stereo partly drawn) [1c, (1aR,6aR)-1,1-Dimethyl-1a,1b,2,3,6,6a-hexahydrocyclopropa[a]-inden-4(1H)-one] | 3.60 ± 0.0791 | 5.30 ± 0.088 | – |
| C=C(C)[C@@H]1CCC2=CC(=O)C[C@@H](C)[C@]2(C)C1 (racemic) [Recemic nootkatone, nootkatone, reference compound] | 3.12 ± 0.07 | 5.06 ± 0.06 | – |
| C=C(C)[C@@H]1CCC2=CC(=O)C[C@@H](C)[C@]2(C)C1 [Natural nootkatone, nootkatone, reference compound] | 5.58 ± 0.171 | >7 | – |
| CCC[C@H]1CC(=O)C=C2C[C@@H]3[C@H]([C@@H]21)C3(C)C [1g, (1aR,1bS,6aR)-1,1-Dimethyl-2-propyl-1a,1b,2,3,6,6a-hexahydrocyclo propa[a]inden-4(1H)-one] | 1.8 ± 0.1490 | 1.99 ± 0.1137 | – |
| CCOC(=O)[C@H]1[C@@H]2C(=O)C3=CC(=O)C[C@@H](C)[C@]3(C)[C@H]12 [1b, Ethyl(1R,1aS,1bR,2R,6aR)-1b,2-dimethyl-4,6-dioxo-1,1a,1b,2,3,4,6,6a-octahydrocyclopropa[a]indene-1-carboxylate] | 1.23 ± 0.040 | 1.40 ± 0.0549 | – |
| CC1=C2C[C@@H]3[C@H](C2CCC1=O)C3(C)C (stereo partly drawn) [1d, (1aR,6aR)-1,1,5-trimethyl-1a,1b,2,3,6,6a hexahydrocyclopropa[a]inden-4(1H)-one] | 5.64 ± 0.1984 | 6.29 ± 0.0844 | – |
| C[C@@H]1CC(=O)C=C2C(=O)[C@@H]3[C@@H](C3(C)C)[C@]21C (racemic) [Recemic nardoaristolone B, (1aS,1bR,2R,6aR)-1,1,1b,2-Tetramethyl-1,1a,1b,2,3,6a-hexahydrocyclopropa[a]indene-4,6-dione] | 3.30 ± 0.0708 | 5.63 ± 0.1778 | – |
| CC1(C)CC(=O)C=C2C[C@@H]3[C@H]([C@@H]21)C3(C)C [1h, (1aR,1bR,6aR)-1,1,2,2-Tetramethyl-1a,1b,2,3,6,6a-hexahydro cyclo propa[a]inden-4(1H)-one] | 2.19 ± 0.0716 | 2.38 ± 0.07567 | – |
| CC[C@H]1CC(=O)C=C2C[C@@H]3[C@H]([C@@H]21)C3(C)C [1f, (1aR,1bS,6aR)-2-Ethyl-1,1-dimethyl-1a,1b,2,3,6,6a hexahydrocyclo propa[a]inden-4(1H)-one] | 1.53 ± 0.1223 | 3.48 ± 0.1396 | – |
| C[C@@H]1CC(=O)C=C2C(=O)[C@H]3[C@H](C3(C)C)[C@]21C [1a, (1aR,1bR,2R,6aS)-1,1,1b,2-Tetramethyl-1,1a,1b,2,3,6a-hexahydro-cyclopropa[a]indene-4,6-dione] | 4.13 ± 0.0626 | 5.35 ± 0.0868 | – |
